Results on six molecules are retold here after patent publication US4921850A, “3-propenylcephem derivative” (Eisai Co., Ltd., priority 1986, dated 1990).

Each structure is given as a SMILES string. In brackets after ≈: the same amount, converted by molar mass.

One assay has as its system Staph. aureus 209-P. The experiment in a line: Anti-bacterial activity (MIC), agar dilution. It counts as cell-based. Conditions: Staphylococcus aureus, 209P, 18 h, Staph. aureus 209-P; agar dilution, about 10^6 CFU/ml, 18 hours, 37° C.; read-out: MIC. Here is the method:
(§1) MIC (μg/ml) were determined by an agar dilution method [Chemotherapy (Japan), 29, 76-79, 1981]. Overnight cultures of the bacterial strains in Mueller-Hinton broth were diluted to final concentration of about 10^6 CFU/ml, and 5 μl of each bacterial suspension was spotted onto Mueller-Hinton agar plates that contained twofold serial dilutions of antibiotics. MICs were measured after incubation for 18 hours at 37° C.
Background: Agar dilution tests growth on a series of plates holding different concentrations.
What is called MIC is the smallest concentration in the dilution series that meets the test's criterion for growth inhibition. With `C[N+](C)(C/C=C/C1=C(C(=O)[O-])N2C(=O)[C@@H](NC(=O)/C(=N\OCF)c3nsc(N)n3)[C@H]2SC1)[C@@H](CC(N)=O)C(N)=O` [Example 60], the MIC amounted to 0.2 µg/mL (≈ 0.334 µM).

In the case of `C[N+](C)(C/C=C/C1=C(C(=O)[O-])N2C(=O)[C@@H](NC(=O)/C(=N\OCF)c3nsc(N)n3)[C@H]2SC1)[C@H](CC(N)=O)C(N)=O` [Example 61], the MIC turned out to be 0.4 µg/mL (≈ 0.667 µM).

In the case of `C[N+](C)(C/C=C/C1=C(C(=O)[O-])N2C(=O)[C@@H](NC(=O)/C(=N\OCF)c3nsc(N)n3)[C@H]2SC1)[C@@H](CO)C(N)=O` [Example 62], the MIC is 0.2 µg/mL (≈ 0.349 µM).

On to `C[N+](C)(C/C=C/C1=C(C(=O)[O-])N2C(=O)[C@@H](NC(=O)/C(=N\OCF)c3nsc(N)n3)[C@H]2SC1)[C@H](CO)C(=O)NCO` [Example 63], for which the minimal inhibitory concentration (MIC) was 0.4 µg/mL (≈ 0.664 µM).

For the molecule `C[N+](C)(C/C=C/C1=C(C(=O)[O-])N2C(=O)[C@@H](NC(=O)/C(=N\OCF)c3nsc(N)n3)[C@H]2SC1)CCO` [Example 64], the MIC was 0.2 µg/mL (≈ 0.378 µM).

For the molecule `CC(O)C[N+](C)(C)CC=CC1=C(C(=O)[O-])N2C(=O)C(NC(=O)C(=NOCF)c3nsc(N)n3)C2SC1` (stereo not drawn) [Example 65], the MIC was 0.4 µg/mL (≈ 0.736 µM).

The next assay relates to Pseud. aeruginosa EP-01. Nature of the assay: Anti-bacterial activity (MIC), agar dilution. The format is cell-based. The settings on record: Pseudomonas aeruginosa, EP01, 18 h, Pseud. aeruginosa EP-01; agar dilution, about 10^6 CFU/ml, 18 hours, 37° C.; read-out: MIC. Here is the method: as §1
Turning to `C[N+](C)(C/C=C/C1=C(C(=O)[O-])N2C(=O)[C@@H](NC(=O)/C(=N\OCF)c3nsc(N)n3)[C@H]2SC1)[C@@H](CC(N)=O)C(N)=O` [Example 60], the minimal inhibitory concentration (MIC) amounted to 1.56 µg/mL (≈ 2.6 µM).

`C[N+](C)(C/C=C/C1=C(C(=O)[O-])N2C(=O)[C@@H](NC(=O)/C(=N\OCF)c3nsc(N)n3)[C@H]2SC1)[C@H](CC(N)=O)C(N)=O` [Example 61]: the MIC was found to be 1.56 µg/mL (≈ 2.6 µM).

As to `C[N+](C)(C/C=C/C1=C(C(=O)[O-])N2C(=O)[C@@H](NC(=O)/C(=N\OCF)c3nsc(N)n3)[C@H]2SC1)[C@@H](CO)C(N)=O` [Example 62], the minimum inhibitory concentration (MIC) is 0.4 µg/mL (≈ 0.699 µM).

In the case of `C[N+](C)(C/C=C/C1=C(C(=O)[O-])N2C(=O)[C@@H](NC(=O)/C(=N\OCF)c3nsc(N)n3)[C@H]2SC1)[C@H](CO)C(=O)NCO` [Example 63], the MIC is 0.8 µg/mL (≈ 1.33 µM).

For `C[N+](C)(C/C=C/C1=C(C(=O)[O-])N2C(=O)[C@@H](NC(=O)/C(=N\OCF)c3nsc(N)n3)[C@H]2SC1)CCO` [Example 64], the minimal inhibitory concentration (MIC) was 0.8 µg/mL (≈ 1.51 µM).

On to `CC(O)C[N+](C)(C)CC=CC1=C(C(=O)[O-])N2C(=O)C(NC(=O)C(=NOCF)c3nsc(N)n3)C2SC1` (stereo not drawn) [Example 65], for which the MIC was 0.8 µg/mL (≈ 1.47 µM).

The next assay concerns Kleb. pneumoniae EK-6. The experiment in a line: Anti-bacterial activity (MIC), agar dilution. The format is cell-based. The settings on record: Klebsiella pneumoniae, EK6, 18 h, Kleb. pneumoniae EK-6; agar dilution, about 10^6 CFU/ml, 18 hours, 37° C.; read-out: MIC. Here is the method: as §1
Consider `C[N+](C)(C/C=C/C1=C(C(=O)[O-])N2C(=O)[C@@H](NC(=O)/C(=N\OCF)c3nsc(N)n3)[C@H]2SC1)[C@@H](CC(N)=O)C(N)=O` [Example 60], for which the minimal inhibitory concentration (MIC) is 0.05 µg/mL (≈ 0.0834 µM).

On to `C[N+](C)(C/C=C/C1=C(C(=O)[O-])N2C(=O)[C@@H](NC(=O)/C(=N\OCF)c3nsc(N)n3)[C@H]2SC1)[C@H](CC(N)=O)C(N)=O` [Example 61], for which the MIC amounted to 0.05 µg/mL (≈ 0.0834 µM).

As to `C[N+](C)(C/C=C/C1=C(C(=O)[O-])N2C(=O)[C@@H](NC(=O)/C(=N\OCF)c3nsc(N)n3)[C@H]2SC1)[C@@H](CO)C(N)=O` [Example 62], the MIC is no more than 0.025 µg/mL.

Take `C[N+](C)(C/C=C/C1=C(C(=O)[O-])N2C(=O)[C@@H](NC(=O)/C(=N\OCF)c3nsc(N)n3)[C@H]2SC1)[C@H](CO)C(=O)NCO` [Example 63]: the minimum inhibitory concentration (MIC) is 0.05 µg/mL (≈ 0.083 µM).

On to `C[N+](C)(C/C=C/C1=C(C(=O)[O-])N2C(=O)[C@@H](NC(=O)/C(=N\OCF)c3nsc(N)n3)[C@H]2SC1)CCO` [Example 64], for which the MIC was no more than 0.025 µg/mL.

In the case of `CC(O)C[N+](C)(C)CC=CC1=C(C(=O)[O-])N2C(=O)C(NC(=O)C(=NOCF)c3nsc(N)n3)C2SC1` (stereo not drawn) [Example 65], the minimal inhibitory concentration (MIC) is no more than 0.025 µg/mL.

Another assay relates to Morganella morganii EP-14. The experiment in a line: Anti-bacterial activity (MIC), agar dilution. It counts as cell-based. Conditions: Morganella morganii, EP14, 18 h, about 10^6 CFU/ml, 37° C., read-out: MIC. Here is the method: as §1
On to `C[N+](C)(C/C=C/C1=C(C(=O)[O-])N2C(=O)[C@@H](NC(=O)/C(=N\OCF)c3nsc(N)n3)[C@H]2SC1)[C@@H](CC(N)=O)C(N)=O` [Example 60], for which the MIC was no more than 0.025 µg/mL.

For `C[N+](C)(C/C=C/C1=C(C(=O)[O-])N2C(=O)[C@@H](NC(=O)/C(=N\OCF)c3nsc(N)n3)[C@H]2SC1)[C@H](CC(N)=O)C(N)=O` [Example 61], the minimal inhibitory concentration (MIC) was determined as 0.1 µg/mL (≈ 0.167 µM).

On to `C[N+](C)(C/C=C/C1=C(C(=O)[O-])N2C(=O)[C@@H](NC(=O)/C(=N\OCF)c3nsc(N)n3)[C@H]2SC1)[C@@H](CO)C(N)=O` [Example 62], for which the MIC was no more than 0.025 µg/mL.

As for `C[N+](C)(C/C=C/C1=C(C(=O)[O-])N2C(=O)[C@@H](NC(=O)/C(=N\OCF)c3nsc(N)n3)[C@H]2SC1)[C@H](CO)C(=O)NCO` [Example 63], the MIC is no more than 0.025 µg/mL.

For `C[N+](C)(C/C=C/C1=C(C(=O)[O-])N2C(=O)[C@@H](NC(=O)/C(=N\OCF)c3nsc(N)n3)[C@H]2SC1)CCO` [Example 64], the MIC was no more than 0.025 µg/mL.

Turning to `CC(O)C[N+](C)(C)CC=CC1=C(C(=O)[O-])N2C(=O)C(NC(=O)C(=NOCF)c3nsc(N)n3)C2SC1` (stereo not drawn) [Example 65], the minimal inhibitory concentration (MIC) was no more than 0.025 µg/mL.

In a further assay the test system is Escher. coli NIHJ. The experiment in a line: Anti-bacterial activity (MIC), agar dilution. It counts as cell-based. Conditions: Escherichia coli, 18 h, Escher. coli NIHJ; agar dilution, about 10^6 CFU/ml, 18 hours, 37° C.; read-out: MIC. Here is the method: as §1
For the molecule `C[N+](C)(C/C=C/C1=C(C(=O)[O-])N2C(=O)[C@@H](NC(=O)/C(=N\OCF)c3nsc(N)n3)[C@H]2SC1)[C@@H](CC(N)=O)C(N)=O` [Example 60], the MIC was no more than 0.025 µg/mL.

As to `C[N+](C)(C/C=C/C1=C(C(=O)[O-])N2C(=O)[C@@H](NC(=O)/C(=N\OCF)c3nsc(N)n3)[C@H]2SC1)[C@H](CC(N)=O)C(N)=O` [Example 61], the minimum inhibitory concentration (MIC) stood at 0.1 µg/mL (≈ 0.167 µM).

For `C[N+](C)(C/C=C/C1=C(C(=O)[O-])N2C(=O)[C@@H](NC(=O)/C(=N\OCF)c3nsc(N)n3)[C@H]2SC1)[C@@H](CO)C(N)=O` [Example 62], the MIC was no more than 0.025 µg/mL.

As to `C[N+](C)(C/C=C/C1=C(C(=O)[O-])N2C(=O)[C@@H](NC(=O)/C(=N\OCF)c3nsc(N)n3)[C@H]2SC1)[C@H](CO)C(=O)NCO` [Example 63], the minimal inhibitory concentration (MIC) was no more than 0.025 µg/mL.

As for `C[N+](C)(C/C=C/C1=C(C(=O)[O-])N2C(=O)[C@@H](NC(=O)/C(=N\OCF)c3nsc(N)n3)[C@H]2SC1)CCO` [Example 64], the MIC is no more than 0.025 µg/mL.

Take `CC(O)C[N+](C)(C)CC=CC1=C(C(=O)[O-])N2C(=O)C(NC(=O)C(=NOCF)c3nsc(N)n3)C2SC1` (stereo not drawn) [Example 65]: the MIC is no more than 0.025 µg/mL.

Another assay relates to Ser. marcescens ES-75. Nature of the assay: Anti-bacterial activity (MIC), agar dilution. It counts as cell-based. The settings on record: Serratia marcescens, ES75, 18 h, Ser. marcescens ES-75; agar dilution, about 10^6 CFU/ml, 18 hours, 37° C.; read-out: MIC. Here is the method: as §1
As for `C[N+](C)(C/C=C/C1=C(C(=O)[O-])N2C(=O)[C@@H](NC(=O)/C(=N\OCF)c3nsc(N)n3)[C@H]2SC1)[C@@H](CC(N)=O)C(N)=O` [Example 60], the minimum inhibitory concentration (MIC) was no more than 0.025 µg/mL.

As to `C[N+](C)(C/C=C/C1=C(C(=O)[O-])N2C(=O)[C@@H](NC(=O)/C(=N\OCF)c3nsc(N)n3)[C@H]2SC1)[C@H](CC(N)=O)C(N)=O` [Example 61], the minimal inhibitory concentration (MIC) came to 0.05 µg/mL (≈ 0.0834 µM).

`C[N+](C)(C/C=C/C1=C(C(=O)[O-])N2C(=O)[C@@H](NC(=O)/C(=N\OCF)c3nsc(N)n3)[C@H]2SC1)[C@@H](CO)C(N)=O` [Example 62]: the minimum inhibitory concentration (MIC) was no more than 0.025 µg/mL.

Regarding `C[N+](C)(C/C=C/C1=C(C(=O)[O-])N2C(=O)[C@@H](NC(=O)/C(=N\OCF)c3nsc(N)n3)[C@H]2SC1)[C@H](CO)C(=O)NCO` [Example 63], the minimum inhibitory concentration (MIC) was no more than 0.025 µg/mL.

As to `C[N+](C)(C/C=C/C1=C(C(=O)[O-])N2C(=O)[C@@H](NC(=O)/C(=N\OCF)c3nsc(N)n3)[C@H]2SC1)CCO` [Example 64], the MIC worked out at 0.1 µg/mL (≈ 0.189 µM).

Regarding `CC(O)C[N+](C)(C)CC=CC1=C(C(=O)[O-])N2C(=O)C(NC(=O)C(=NOCF)c3nsc(N)n3)C2SC1` (stereo not drawn) [Example 65], the minimum inhibitory concentration (MIC) is 0.05 µg/mL (≈ 0.092 µM).
